Experimental findings from patent publication US20090221653A1, “7-(2-amino-1-hydroxy-ethyl)-4-hydroxybenzothiazol-2(3H)-one-derivatives as beta2 adrenoreceptor agonists” (AstraZeneca AB, priority 2005, published 2009) are described below.

Assay [1] deals with T1, β2 receptor (Homo sapiens, UniProt P07550).
T1 construct: endogenous in cells; host or cells: H292 cells
In words: Adrenergic β2 mediated cAMP production in H292 cells (AlphaScreen cAMP detection). The format is cell-based. The following applies: for EC50: cAMP, test compounds incubated 10 minutes, 300 μM rolipram; for Intrinsic Activity: fraction relative to the maximum activity determined for formoterol, 10 minutes incubation. On the procedure:
H292 cells were grown in RPMI (Roswell Park Memorial Institute) medium containing, 10% (v/v) FBS (foetal bovine serum) and 2 mM L-glutamine. Cells were grown in 225 cm2 flasks containing 25 mL media in a humidified incubator at 37° C., 5% CO2. Cells were harvested from the flask and passaged at a 1 in 10 dilution once per week.
The media from flasks containing H292 cells was removed, rinsed with 10 mL PBS (phosphate buffered saline) and replaced with 10 mL Accutase™ cell detachment solution. Flasks were incubated for 15 minutes in a humidified incubator at 37° C., 5% CO2. The cell suspension was counted and the cells re-suspended in RPMI media (containing 10% (v/v) FBS and 2 mM L-glutamine) at 0.05×10^6 cells per mL. 5000 cells in 100 μL were added to each well of a tissue-culture-treated 96-well plate and the cells incubated overnight in a humidified incubator at 37° C., 5% CO2. The culture media was removed, washed twice with 100 μL assay buffer and replaced with 50 μL assay buffer. Cells were rested at room temperature for 20 minutes after which time 25 μL of rolipram (1.2 mM made up in assay buffer containing 2.4% (v/v) dimethylsulphoxide) was added. Cells were incubated with rolipram for 10 minutes after which time test compounds (made up as ×4 concentrated stocks in assay buffer containing 4% (v/v) dimethylsulphoxide) were added and the cells were incubated for 10 minutes at room temperature. Final rolipram concentration in the assay was 300 μM and final vehicle concentration was 1.6% (v/v) dimethylsulphoxide. The reaction was stopped by removing supernatants, washing once with 100 μL assay buffer and replacing with 50 μL lysis buffer. The cell monolayer was frozen at −80° C. for 30 minutes (or overnight).
The concentration of cAMP (cyclic adenosine monophosphate) in the cell lysate was determined using the AlphaScreen™ methodology. The frozen cell plate was thawed for 20 minutes on a plate shaker then 10 μL of the cell lysate was transferred to a 96-well white plate. 40 μL of mixed AlphaScreen™ detection beads (containing equal volumes of donor beads (pre-incubated with biotinylated cAMP in the dark for 30 minutes) and acceptor beads), was added to each well and the plate incubated at room temperature for 10 hours in the dark. The AlphaScreen™ signal was measured using an EnVision spectrophotometer (Perkin-Elmer Inc.) with the recommended manufacturer's settings. cAMP concentrations were determined by reference to a calibration curve determined in the same experiment using standard cAMP concentrations (made up in lysis buffer in a 96-well tissue-culture-treated plate and frozen/thawed alongside the test samples) and detected using the same protocol. Concentration response curves for agonists were constructed to determine both the pEC50 and Intrinsic Activity.
A general note: Changes in cAMP serve as a functional read-out for many G protein-coupled receptors.

Assay [2] has as its target T2, recombinant human Dopamine Subtype D2s receptors (Homo sapiens, UniProt P14416).
T2 construct: purchased Perkin Elmer
In words: Dopamine D2 selectivity assay, inhibition of [3H]-spiperone binding. The following applies: membranes, [3H]-spiperone 0.16 nM; read-out: D2 bind pIC50 (converted).

Where a name gives a salt, the structure may show the parent alone.

T1 sequence (P07550 whole entry): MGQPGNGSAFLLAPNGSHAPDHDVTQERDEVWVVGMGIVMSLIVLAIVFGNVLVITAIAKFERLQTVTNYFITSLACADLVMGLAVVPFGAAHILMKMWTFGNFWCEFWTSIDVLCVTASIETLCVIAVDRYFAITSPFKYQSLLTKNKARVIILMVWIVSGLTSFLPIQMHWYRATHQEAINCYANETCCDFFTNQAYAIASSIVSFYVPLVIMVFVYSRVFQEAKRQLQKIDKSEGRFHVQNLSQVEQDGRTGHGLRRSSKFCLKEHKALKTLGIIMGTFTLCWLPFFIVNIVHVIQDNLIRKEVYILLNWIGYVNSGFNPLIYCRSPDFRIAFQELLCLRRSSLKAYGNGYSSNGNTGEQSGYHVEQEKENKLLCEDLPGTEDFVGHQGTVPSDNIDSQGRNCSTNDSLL
T2 sequence (P14416 1-414 isoform P14416-2): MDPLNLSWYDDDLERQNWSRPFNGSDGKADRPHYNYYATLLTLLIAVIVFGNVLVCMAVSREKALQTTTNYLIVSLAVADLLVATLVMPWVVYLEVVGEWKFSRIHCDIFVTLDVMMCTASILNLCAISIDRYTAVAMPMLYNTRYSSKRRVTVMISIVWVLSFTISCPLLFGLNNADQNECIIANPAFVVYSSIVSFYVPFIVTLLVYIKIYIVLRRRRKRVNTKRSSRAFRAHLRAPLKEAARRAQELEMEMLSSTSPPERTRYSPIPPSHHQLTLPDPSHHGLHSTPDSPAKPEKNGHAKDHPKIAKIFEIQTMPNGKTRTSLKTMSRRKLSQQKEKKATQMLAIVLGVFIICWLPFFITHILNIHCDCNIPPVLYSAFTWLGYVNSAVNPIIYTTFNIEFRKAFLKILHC

As a reminder, the EC50 is the midpoint of the concentration-response curve. Low readings indicate a more potent agent, high ones a less potent agent. As to `O=c1[nH]c2c(O)ccc([C@@H](O)CNCCCS(=O)(=O)CCOCCc3cccc4ccccc34)c2s1` [Example 2, 4-Hydroxy-7-((1R)-1-hydroxy-2-{[3-({2-[2-(1-naphthyl)ethoxy]ethyl}sulfonyl)propyl]-amino}ethyl)-1,3-benzothiazol-2(3H)-one trifluoroacetate], in assay [1], it took 0.158 nM to reach a half-maximal effect (EC50) and the “Intrinsic Activity” value turned out to be 1.0.
As to `Cl.O=c1[nH]c2c(O)ccc([C@@H](O)CNCCSCCOCCc3cccc4ccccc34)c2s1` [Example 4, 4-Hydroxy-7-((1R)-1-hydroxy-2-{[2-({2-[2-(1-naphthyl)ethoxy]ethyl}thio)ethyl]-amino}ethyl)-1,3-benzothiazol-2(3H)-one hydrochloride], the IC50 in assay [2] is 794 nM. Further, in assay [1], a half-maximal response (EC50) required 0.1 nM and the “Intrinsic Activity” value amounted to 0.9.
